Where two headings read alike, the source gives them in different places.
Columns and labels:
ERK3 kinase domain [1] = target: T1, ERK3 kinase domain (Homo sapiens, UniProt Q16659); test: Melting temperature assay (differential scanning fluorimetry, DSF); format: binding
T1 construct: The kinase domain of ERK3 (M9-I327) was subcloned into pNIC28–Bsa4; His6 (N, cleaved yes); made in house; host or cells: E. coli (co-expressed with lambda phosphatase)
Protocol: The ERK3 kinase domain at 2 µM in 10 mM HEPES pH 7.5 and 500 mM NaCl was mixed with 10 µM inhibitors and SyPRO Orange at 1:1000 dilution. After 10 min incubation at room temperature, the fluorescence signal, which increases upon the temperature-dependent unfolding of ERK3 protein, was measured using Mx3005p real-time PCR machine (Stratagene, San Diego, CA, USA). The ∆Tm shifts were calculated using protocol described previously.

[2] = target: T2, Full length ERK3 (NanoLuc fusion) (Homo sapiens, UniProt Q16659); test: Cell-based NanoBRET assay (tracer displacement) in HEK293T cells; details: for remaining activity at 5 µM / remaining activity at 10 µM: HEK-293T, 2 h, Table S3, ratio to DMSO control; for remaining activity at 5 µM: single dose 5 µM, read-out: Norm.BRET 5 µM; for remaining activity at 10 µM: single dose 10 µM, read-out: Norm.BRET 10 µM; for IC50: Figure 2F, HEK293T cells, 0.25 µM Tracer K5, 2 h, averaged over two replicates
T2 construct: Full length ERK3 was cloned into pFC32K (Promega, Madison, WI, USA); expressed in transfected cells; host or cells: HEK293T
T2 sequence (Q16659 whole entry, the tested form may be a part): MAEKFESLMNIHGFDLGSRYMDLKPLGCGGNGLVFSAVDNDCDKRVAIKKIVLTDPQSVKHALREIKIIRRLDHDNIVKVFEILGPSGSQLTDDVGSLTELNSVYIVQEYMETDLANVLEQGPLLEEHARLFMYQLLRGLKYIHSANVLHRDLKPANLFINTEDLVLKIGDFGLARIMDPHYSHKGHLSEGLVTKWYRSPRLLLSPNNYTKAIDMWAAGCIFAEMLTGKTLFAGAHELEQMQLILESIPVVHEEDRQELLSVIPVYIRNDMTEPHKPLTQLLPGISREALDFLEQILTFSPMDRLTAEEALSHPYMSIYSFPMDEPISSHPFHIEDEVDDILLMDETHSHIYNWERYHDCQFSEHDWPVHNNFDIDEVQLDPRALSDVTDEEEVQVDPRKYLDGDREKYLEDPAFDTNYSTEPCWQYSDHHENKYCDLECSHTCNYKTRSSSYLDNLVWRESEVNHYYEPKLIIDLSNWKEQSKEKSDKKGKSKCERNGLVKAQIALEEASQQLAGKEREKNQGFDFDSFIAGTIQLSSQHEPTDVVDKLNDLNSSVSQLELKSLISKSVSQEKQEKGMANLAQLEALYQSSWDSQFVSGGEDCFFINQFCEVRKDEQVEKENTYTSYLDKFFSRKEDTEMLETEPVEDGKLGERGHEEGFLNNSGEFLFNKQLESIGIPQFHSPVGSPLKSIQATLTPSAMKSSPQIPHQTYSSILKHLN
Protocol: Full length ERK3 was cloned into pFC32K (Promega, Madison, WI, USA) for the expression of an […] NanoLuc fusion, and the plasmid was transfected into HEK293T cells cultured in DMEM (Gibco) supplemented with 10% fetal bovine serum (Gibco) and penicillin/streptamycin (Gibco, Thermo Fisher Scientific, Waltham, MA, USA). NanoBRET assays were performed using protocol published previously. Briefly, after transfection and 20 h incubation, cells were harvested and subsequently resuspended in OptiMEM (Gibco). […] BRET luminescence (450 nm for donor emission and 610 nm for BRET signal) was measured using PHERAstar FSX plate reader (BMG Labtech, Ortenberg, Germany). Milli-BRET units (mBU) were calculated as a ratio between the BRET signal and the overall measured luminescence. A dose–response fitting was applied, and the corresponding IC50 values were calculated in Prism software. For the single concentration screening, the normalized BRET values were calculated from the ratio between the BRET signals of the tested inhibitor and that of the DMSO control.

ERK3 kinase domain [3] = target: T1, ERK3 kinase domain; test: Isothermal titration calorimetry (ITC); format: binding; details: for Kd: Figure 2E, 15 °C, averaged over two replicates, read-out: ITC dissociation constant Kd
Protocol: The integrated heat of titration was calculated and fitted into an independent binding model using NanoAnalyzer software. Thermodynamic parameters, the dissociation constant (Kd), and stoichiometry (n) were an average over duplicates.

[4] = Table S3, DSF assay values shown for comparison, read-out: ΔTm ERK3
[5] = Table S2, 10 µM inhibitors, read-out: ΔTm Initial Screen
[6] = Table S2, average of two repeats ± standard deviation, read-out: ΔTm Follow Up

T1 sequence (Q16659 9-327): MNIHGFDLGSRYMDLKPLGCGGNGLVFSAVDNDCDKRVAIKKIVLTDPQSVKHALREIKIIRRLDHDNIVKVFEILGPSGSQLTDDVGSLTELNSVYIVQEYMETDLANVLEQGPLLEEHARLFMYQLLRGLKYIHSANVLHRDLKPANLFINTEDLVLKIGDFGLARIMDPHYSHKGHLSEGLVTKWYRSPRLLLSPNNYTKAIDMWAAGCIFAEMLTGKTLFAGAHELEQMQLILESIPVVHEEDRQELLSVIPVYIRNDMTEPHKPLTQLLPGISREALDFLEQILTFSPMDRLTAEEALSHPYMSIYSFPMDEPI

Compound | ΔTm at 10 µM (ERK3 kinase domain [1]; [4]) [°C] | remaining activity at 5 µM ([2]; HEK293T) [%] | remaining activity at 10 µM ([2]; HEK293T) [%] | ΔTm at 10 µM (ERK3 kinase domain [1]; [5]) [°C] | ΔTm at 10 µM (ERK3 kinase domain [1]; [6]) [°C] | further results
CNC(=O)c1cc(Oc2ccc(NC(=O)Nc3ccc(Cl)c(C(F)(F)F)c3)cc2)ccn1 [Sorafenib] |  |  |  |  |  | ΔTm at 10 µM (ERK3 kinase domain [1]; read-out: ΔTm Follow Up): 0 °C; ΔTm at 10 µM (ERK3 kinase domain [1]; read-out: ΔTm Initial Screen): 1.2 °C
Cc1ncc(-c2ccnc(Nc3ccc(S(C)(=O)=O)cc3)n2)n1C(C)C [AZD5438] | -0.17 | 93.3 ± 4 | 61.7 ± 2.2 |  |  | 
CNC(=O)c1nn(C)c2c1C(C)(C)Cc1cnc(Nc3ccc(N4CCN(C)CC4)cc3)nc1-2 [Milciclib] |  | 40.9 | 26.8 ± 0.5 | 2.11 | 2.5 ± 0.3 | IC50 [2]: 27 ± 5 nM; Kd (ERK3 kinase domain [3]): 245 ± 60 nM
Nc1cccc(-c2cc3c(Oc4cccc(O)c4)ncnc3[nH]2)c1 [TWS119] | 0.6 ± 0.2 | 54.2 ± 6.4 | 28.1 ± 5.5 |  |  | IC50 [2]: 601 ± 29 nM; Kd (ERK3 kinase domain [3]): 1930 ± 182 nM
Oc1ccc2ccccc2c1SSc1c(O)ccc2ccccc12 [IPA-3] | -3.92 ± 0.3 | 67.8 ± 10.6 | 45.5 ± 4.2 |  |  | 
O=C1Nc2ccc(I)cc2C1=Cc1cc(Br)c(O)c(Br)c1 [GW5074] |  |  |  |  |  | ΔTm at 10 µM (ERK3 kinase domain [1]; read-out: ΔTm Initial Screen): 1.36 °C
Nc1nc(Nc2ccc(S(N)(=O)=O)cc2)nn1C(=O)c1c(F)cccc1F [JNJ-7706621] | 0.2 ± 0.1 | 23.1 ± 0.1 | 17 ± 0.1 |  |  | 
O=C(Nc1c[nH]nc1-c1nc2ccc(CN3CCOCC3)cc2[nH]1)NC1CC1 [AT9283] |  | 16.1 ± 3.9 | 10.6 ± 1.5 | 3.08 | 3.1 ± 0.1 | ΔTm (melting temperature shift) (ERK3 kinase domain [1]; DSF screen of 1454 kinase inhibitors): 3.1–3.8 °C; IC50 [2]: 15 ± 7 nM; ITC dissociation constant (Kd), in words (ERK3 kinase domain [3]): low nanomolar affinities; Kd (ERK3 kinase domain [3]): 80 ± 5 nM
O=C(Nc1cccc(Nc2ncc(Br)c(NCCc3cnc[nH]3)n2)c1)N1CCCC1 [BX-912] | -0.12 | 74.1 ± 1.5 | 53.2 ± 1.7 |  |  | 
O=C(c1ccc(Nc2nccc(-c3cc4ccccc4s3)n2)cc1)N1CCC(N2CCCC2)CC1 [IKK-16] |  | 28.8 ± 2.4 | 19.6 ± 5.7 | 1.67 | 1.7 ± 0.4 | IC50 [2]: 116 ± 26 nM; Kd (ERK3 kinase domain [3]): 1850 ± 915 nM
COc1cc2ncnc(Nc3cccc(Cl)c3)c2cc1OC [AG-1478] | 0.06 | 73.5 ± 1.1 | 41.7 |  |  | 
CN1CCN(c2ccc(Nc3nccc(-c4cnn5ncccc45)n3)cc2F)CC1 [CAF052] |  |  |  | 2.81 | 2.5 ± 0.3 | IC50 [2]: 20 ± 13 nM
C=CC(=O)Nc1cccc(Nc2nc(Nc3ccc(Oc4ccnc(C(=O)NC)c4)cc3)ncc2F)c1 [CNX-774] |  |  |  | 1.04 |  | 
COc1cccc(-c2c[nH]c3c(N/N=C/c4ccncc4)ncnc23)c1 [GW814408X] |  |  |  | 2.55 | 2.5 ± 0.2 | 
CC(C)(C)c1cnc(CSc2cnc(NC(=O)C3CCNCC3)s2)o1 [SNS-032] | 0.15 | 71.7 ± 7.8 | 49.8 ± 4.1 |  |  | 
COc1cccc(-n2ncc3c(N/N=C/c4ccc(C(=O)NCCN(C)C)cc4)ncnc32)c1 [GW784307A] |  |  |  |  |  | ΔTm at 10 µM (ERK3 kinase domain [1]; read-out: ΔTm Initial Screen): 1.3 °C
CC(C)(C)c1cc(NC(=O)Nc2ccc(-c3cn4c(n3)sc3cc(OCCN5CCOCC5)ccc34)cc2)no1 [Quizartinib] |  |  |  |  |  | ΔTm Initial Screen (ERK3 kinase domain [1]; Table S2, 10 µM inhibitors): 1.12 °C
CCCN1CCC(c2ccc(Nc3nc(Nc4cc(F)ccc4C(N)=O)c4cc[nH]c4n3)c(OC)c2)CC1 [GSK1326255A] |  |  |  | 1.12 | -0.3 ± 0.3 | 
O=C(NC(NC(=S)Nc1ccc(F)c([N+](=O)[O-])c1)C(Cl)(Cl)Cl)C(c1ccccc1)c1ccccc1 (centres unmarked) [CGK733] |  |  |  | 1.17 |  | 

Compound | ΔTm at 10 µM (ERK3 kinase domain [1]; [4]) [°C] | remaining activity at 5 µM ([2]; HEK293T) [%] | remaining activity at 10 µM ([2]; HEK293T) [%] | ΔTm at 10 µM (ERK3 kinase domain [1]; [5]) [°C] | ΔTm at 10 µM (ERK3 kinase domain [1]; [6]) [°C] | further results
O=C(/C=C/c1ccc(O)c(O)c1)c1ccc(O)cc1O [Butein] |  |  |  | 1.15 |  | 
CN(c1ncccc1CNc1nc(Nc2ccc3c(c2)CC(=O)N3)ncc1C(F)(F)F)S(C)(=O)=O [PF-00562271] | -0.09 | 76.8 ± 9.4 | 49.5 ± 4.6 |  |  | 
CS(=O)(=O)CCNCc1ccc(-c2ccc3ncnc(Nc4ccc(OCc5ccccc5)c(Br)c4)c3c2)o1 [GW580496A] |  |  |  | 1.04 | 0.8 ± 0.4 | 
NC(=O)c1cnc(N[C@@H]2CCCC[C@@H]2N)nc1Nc1cccc(-n2nccn2)c1 [PRT062607] | 0.51 | 88.2 ± 10.3 | 60.1 ± 16.9 |  |  | 
CCn1cc(-c2ccnc3[nH]c(-c4cccc(CN(C)C)c4)cc23)c(-c2ccc(NC(=O)N(C)C)cc2)n1 [GSK1070916] |  | 56.8 ± 2.8 | 31.3 ± 0.1 | 1.45 | 0.1 ± 0.3 | IC50, cell-based NanoBRET assay ([2]; HEK293T): did not produce a BRET signal
NS(=O)(=O)c1ccc(N/N=C2\C(=O)Nc3ccc4ncccc4c32)cc1 [GW305178X] |  |  |  | 1.04 | 1.1 ± 0.2 | 
Cc1cnc(Nc2ccc(N3CCN(C)CC3)cc2)nc1Nc1cccc(S(=O)(=O)NC(C)(C)C)c1 [TG101209] | 0.3 ± 0.2 | 46.6 ± 2.2 | 36.9 ± 0.7 |  |  | IC50 [2]: 1540 ± 214 nM
CCN1CCN(Cc2ccc(-c3cc4c(N[C@H](C)c5ccccc5)ncnc4[nH]3)cc2)CC1 [AEE788] | 0.4 ± 0.3 | 40 ± 1.6 | 38.8 ± 3.1 |  |  | IC50 [2]: 145 ± 45 nM
COc1ccc(Cl)c(Nc2nc3ccccc3nc2NS(=O)(=O)c2cccc(NC(=O)C(C)(C)N)c2)c1 [XL147] |  |  |  | 1.96 | 1.2 ± 0.6 | 
COc1cc2ncnc(Nc3ccc(O)c(Br)c3)c2cc1OC [WHI-P154] | -0.1 ± 0.2 | 50.8 ± 4.5 | 36.2 ± 6.3 |  |  | IC50 [2]: 540 ± 129 nM
Cc1nc(N)sc1-c1ccnc(Nc2ccc(N3CCOCC3)cc2)n1 [CYC116] | 0.26 | 64.9 ± 3.8 | 52.9 ± 2.8 |  |  | 
CC(C)CCN1c2nc(Nc3cc(F)c(O)c(F)c3)ncc2N(C)C(=O)C1C (centres unmarked) [BI-D1870] | 0.02 | 80.6 ± 6.7 | 49.4 ± 1.1 |  |  | 
Cc1cc(Nc2cc(N3CCN(C)CC3)nc(/C=C/c3ccccc3)n2)n[nH]1 [ENMD-2076] | -0.15 | 90.8 ± 3 | 58.5 ± 0.4 |  |  | 
C=CC(=O)Nc1cc2c(Nc3ccc(F)c(Cl)c3)ncnc2cc1OCCCN1CCOCC1 [Canertinib] |  |  |  | 2.05 | 3.1 ± 0.3 | 
Fc1ccc(-c2ncn(C3CCNCC3)c2-c2ccnc(Oc3ccc4c(c3)OCO4)n2)cc1 [SB-250715] |  |  |  | 1.1 |  | 
CN1CCN(c2ccc(Nc3nccc(-c4cnn5ncccc45)n3)cc2)CC1 [CAF045] |  |  |  |  |  | ΔTm at 10 µM (ERK3 kinase domain [1]; read-out: ΔTm Follow Up): 1.4 ± 0.5 °C; ΔTm at 10 µM (ERK3 kinase domain [1]; read-out: ΔTm Initial Screen): 1.61 °C
O=C(Nc1ccc(Nc2nccc(Nc3cc(C4CCCC4)[nH]n3)n2)cc1)Nc1cccc(C(F)(F)F)c1 [CD532] |  |  |  | 1.7 | 1 ± 0.1 | 
O=C(Nc1cc(C(F)(F)F)cc(C(F)(F)F)c1)c1cc(Cl)ccc1O [IMD0354] |  |  |  |  |  | ΔTm at 10 µM (ERK3 kinase domain [1]; read-out: ΔTm Initial Screen): 1.21 °C

From publication PMC7663056, “Crystal Structure and Inhibitor Identifications Reveal Targeting Opportunity for the Atypical MAPK Kinase ERK3” (International Journal of Molecular Sciences, 2020)
